Measured values: patent US12029739B2, “SHP2 inhibitor and use thereof” (KANAPH THERAPEUTICS INC., priority 2021, dated 2024)
Read-outs that look alike come from different tables or passages of the source.

How the values were obtained:
[1] = tested on: phospho-ERK in MIA PaCa2 or H358 cells; assay: Phospho-ERK assay (AlphaLisa); type: cell-based
SHP2 (full length) = target: T1, SHP2 (full length) (Homo sapiens, UniProt Q06124); assay: Phosphatase assay (PTPase assay) with DiFMUP substrate; type: biochemical; conditions: SHP2 activated with SHP2 activating peptide, DiFMUP 80 μM, 2 hours, fluorescence
T1 construct: SHP2 (full length, diluted to 100 pM final concentration in reaction buffer, BPS bioscience, US); purchased BPS bioscience, US
T1 sequence (Q06124 1-593): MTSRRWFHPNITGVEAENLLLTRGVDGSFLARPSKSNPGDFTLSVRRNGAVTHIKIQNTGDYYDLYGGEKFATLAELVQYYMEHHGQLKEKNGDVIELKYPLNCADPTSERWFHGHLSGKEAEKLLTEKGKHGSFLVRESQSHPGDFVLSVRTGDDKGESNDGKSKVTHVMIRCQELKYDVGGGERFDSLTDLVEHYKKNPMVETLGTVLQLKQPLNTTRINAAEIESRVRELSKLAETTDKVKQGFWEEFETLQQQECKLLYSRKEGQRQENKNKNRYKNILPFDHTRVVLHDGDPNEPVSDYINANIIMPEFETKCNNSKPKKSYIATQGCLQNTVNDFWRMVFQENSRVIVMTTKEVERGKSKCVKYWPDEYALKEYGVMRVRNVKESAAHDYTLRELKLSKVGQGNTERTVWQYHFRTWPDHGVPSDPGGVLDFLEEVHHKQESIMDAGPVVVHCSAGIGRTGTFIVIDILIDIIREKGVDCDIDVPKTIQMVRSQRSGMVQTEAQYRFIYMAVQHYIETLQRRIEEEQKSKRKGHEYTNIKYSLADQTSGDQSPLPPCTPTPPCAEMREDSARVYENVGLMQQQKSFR

[2] = MIA PaCa2 or H358 cells, compound incubated 1.5 hours, read-out: IC50 (p-ERK)
[3] = 1.5 h, MIA PaCa2 or H358 cells, compound incubated 1.5 hours, read-out: IC50 (p-ERK)
[4] = 1.5 h, read-out: IC50 (p-ERK, nM)

| Structure (SMILES) | IC50 (SHP2 (full length); read-out: IC50 (PTPase aS say)) | other results |
| --- | --- | --- |
| COCCn1cnc2ccc(Sc3cnc(N4CCC5(CC4)Cc4ncsc4C5N)cn3)c(Cl)c2c1=O (stereo in doubt) [Example 145, 6-[5-[(6R)-6-aminospiro[4,6-dihydrocyclopenta[d]thiazole-5,4′-piperidin]-1′-yl]pyrazin-2-yl]sulfanyl-5-chloro-3-(2-methoxyethyl)quinazolin-4-one] | 3 to 100 nM | IC50 [1, 2]: 45 to 1500 nM |
| COC(=O)c1cccc(Sc2cnc(N3CCC(C)(N)CC3)cn2)c1Cl [Example 1, methyl 3-((5-(4-amino-4-methylpiperidin-1-yl)pyrazin-2-yl)thio)-2-chlorobenzoate] | 3 to 100 nM | IC50 [1, 3]: 45 to 1500 nM |
| CCOC(=O)c1cccc(Sc2c(N)nc(N3CCC(C)(N)CC3)n(C)c2=O)c1Cl [Example 2, ethyl 3-((4-amino-2-(4-amino-4-methylpiperidin-1-yl)-1-methyl-6-oxo-1,6-dihydropyrimidin-5-yl)thio)-2-chlorobenzoate] | > 100 nM | IC50 [1, 2]: 45 to 1500 nM |
| CC1(CN)CCN(c2cnc(Sc3ccc4nc[nH]c(=O)c4c3Cl)cn2)CC1 [Example 3, 6-((5-(4-(aminomethyl)-4-methylpiperidin-1-yl)pyrazin-2-yl)thio)-5-chloroquinazolin-4(3H)-one] | 3 to 100 nM | IC50 [1, 3]: 45 to 1500 nM |
| CC1(N)CCN(c2cnc(Sc3ccc4nc[nH]c(=O)c4c3Cl)cn2)CC1 [Example 4, 6-((5-(4-amino-4-methylpiperidin-1-yl)pyrazin-2-yl)thio)-5-chloroquinazolin-4(3H)-one] | 3 to 100 nM | IC50 [1, 3]: 45 to 1500 nM |
| C[C@@H]1OCC2(CCN(c3cnc(Sc4ccc5nc[nH]c(=O)c5c4Cl)cn3)CC2)[C@@H]1N [Example 5, 6-((5-((3S,4S)-4-amino-3-methyl-2-oxa-8-azaspiro[4.5]decan-8-yl)pyrazin-2-yl)thio)-5-chloroquinazolin-4(3H)-one] | 3 to 100 nM | IC50 [1, 3]: 45 to 1500 nM |
| CC1(CN)CCN(c2cnc(Sc3cccc(S(=O)(=O)F)c3Cl)cn2)CC1 [Example 6, 3-((5-(4-(aminomethyl)-4-methylpiperidin-1-yl)pyrazin-2-yl)thio)-2-chlorobenzenesulfonyl fluoride] | – | IC50 [1, 4]: 45 to 1500 nM; IC50 (SHP2 (full length); IC50 (PTPase aS say, nM)): 3 to 100 nM |
| CC1(N)CCN(c2cnc(Sc3cccc(S(=O)(=O)F)c3Cl)cn2)CC1 [Example 7, 3-((5-(4-amino-4-methylpiperidin-1-yl)pyrazin-2-yl)thio)-2-chlorobenzenesulfonyl fluoride] | – | IC50 [1, 4]: 45 to 1500 nM; IC50 (SHP2 (full length); IC50 (PTPase aS say, nM)): 3 to 100 nM |
| CNS(=O)(=O)c1cccc(Sc2cnc(N3CCC(C)(N)CC3)cn2)c1Cl [Example 8, 3-((5-(4-amino-4-methylpiperidin-1-yl)pyrazin-2-yl)thio)-2-chloro-N-methylbenzenesulfonamide] | 3 to 100 nM | IC50 [1, 3]: > 1500 nM |
| C[C@@H]1OCC2(CCN(c3cnc(Sc4cccc(S(N)(=O)=O)c4Cl)cn3)CC2)[C@@H]1N [Example 9, 3-((5-((3S,4S)-4-amino-3-methyl-2-oxa-8-azaspiro[4.5]decan-8-yl)pyrazin-2-yl)thio)-2-chlorobenzenesulfonamide] | < 3 nM | IC50 [1, 3]: < 45 nM |
| C[C@@H]1OCC2(CCN(c3cnc(Sc4cccc(S(=O)(=O)NCc5ccccc5)c4Cl)cn3)CC2)[C@@H]1N [Example 10, 3-((5-((3S,4S)-4-amino-3-methyl-2-oxa-8-azaspiro[4.5]decan-8-yl)pyrazin-2-yl)thio)-N-benzyl-2-chlorobenzenesulfonamide] | 3 to 100 nM | IC50 [1, 3]: < 45 nM |
| Cc1nc2ccc(Sc3cnc(N4CCC(C)(CN)CC4)cn3)c(Cl)c2c(=O)n1Cc1cccc(S(=O)(=O)F)c1 [Example 21, 3-((6-((5-(4-(aminomethyl)-4-methylpiperidin-1-yl)pyrazin-2-yl)thio)-5-chloro-2methyl-4-oxoquinazolin-3(4H)-yl)methyl)benzenesulfonyl fluoride] | – | IC50 [1, 2]: 45 to 1500 nM |
| C[C@@H]1OCC2(CCN(c3cnc(Sc4ccc5ncn(CC6CCCN6)c(=O)c5c4Cl)cn3)CC2)[C@@H]1N (stereo partly drawn) [Example 54, 6-((5-((3S,4S)-4-amino-3-methyl-2-oxa-8-azaspiro[4.5]decan-8-yl)pyrazin-2-yl)thio)-5-chloro-3-(pyrrolidin-2-ylmethyl)quinazolin-4(3H)-one] | 3 to 100 nM | – |
| C[C@@H]1OCC2(CCN(c3cnc(Sc4ccc5ncn(CC6CCNC6)c(=O)c5c4Cl)cn3)CC2)[C@@H]1N (stereo partly drawn) [Example 55, 6-((5-((3S,4S)-4-amino-3-methyl-2-oxa-8-azaspiro[4.5]decan-8-yl)pyrazin-2-yl)thio)-5-chloro-3-(pyrrolidin-3-ylmethyl)quinazolin-4(3H)-one] | 3 to 100 nM | – |
| C[C@@H]1OCC2(CCN(c3cnc(Sc4ccc5ncn(Cc6ccon6)c(=O)c5c4Cl)cn3)CC2)[C@@H]1N [Example 56, 6-((5-((3S,4S)-4-amino-3-methyl-2-oxa-8-azaspiro[4.5]decan-8-yl)pyrazin-2-yl)thio)-5-chloro-3-(isoxazol-3-ylmethyl)quinazolin-4(3H)-one] | < 3 nM | – |
| C[C@@H]1OCC2(CCN(c3cnc(Sc4ccc5ncn(Cc6ccno6)c(=O)c5c4Cl)cn3)CC2)[C@@H]1N [Example 57, 6-((5-((3S,4S)-4-amino-3-methyl-2-oxa-8-azaspiro[4.5]decan-8-yl)pyrazin-2-yl)thio)-5-chloro-3-(isoxazol-5-ylmethyl)quinazolin-4(3H)-one] | < 3 nM | – |
| C[C@@H]1OCC2(CCN(c3cnc(Sc4ccc5ncn(CCO)c(=O)c5c4Cl)cn3)CC2)[C@@H]1N [Example 58, 6-((5-((3S,4S)-4-amino-3-methyl-2-oxa-8-azaspiro[4.5]decan-8-yl)pyrazin-2-yl)thio)-5-chloro-3-(2-hydroxyethyl)quinazolin-4(3H)-one] | 3 to 100 nM | – |
| C[C@@H]1OCC2(CCN(c3cnc(Sc4ccnc(C(=O)NCc5ccccc5)c4Cl)cn3)CC2)[C@@H]1N [Example 86, 4-((5-((3S,4S)-4-amino-3-methyl-2-oxa-8-azaspiro[4.5]decan-8-yl)pyrazin-2-yl)thio)-N-benzyl-3-chloropicolinamide] | 3 to 100 nM | – |
| N[C@@H]1c2ccccc2CC12CCN(c1cnc(Sc3ccc4ncn(Cc5ccccc5)c(=O)c4c3Cl)cn1)CC2 [Example 99, (S)-6-((5-(1-amino-1,3-dihydrospiro(indene-2,4′-piperidin]-1′-yl)pyrazin-2-yl)thio)-3-benzyl-5-chloroquinazolin-4(3H)-one] | < 3 nM | – |
| N[C@H]1c2ccccc2CC12CCN(c1cnc(Sc3ccc4ncn(Cc5ccccc5)c(=O)c4c3Cl)cn1)CC2 [Example 100] | 3 to 100 nM | – |
| N[C@H]1c2cccnc2CC12CCN(c1cnc(Sc3ccc4ncn(Cc5ccccc5)c(=O)c4c3Cl)cn1)CC2 [Example 101, (R)-6-((5-(5-amino-5,7-dihydrospiro[cyclopenta[b]pyridine-6,4′-piperidin]-1′-yl)pyrazin-2-yl)thio)-3-benzyl-5-chloroquinazolin-4(3H)-one] | 3 to 100 nM | – |
| COc1ccc2c(c1)[C@@H](N)C1(CCN(c3cnc(Sc4ccc5ncn(CC(C)(C)O)c(=O)c5c4Cl)cn3)CC1)C2 [Example 162, (S)-6-((5-(1-amino-6-methoxy-1,3-dihydrospiro[indene-2,4′-piperidin]-1′-yl)pyrazin-2-yl)thio)-5-chloro-3-(2-hydroxy-2-methylpropyl)quinazolin-4(3H)-one] | < 3 nM | – |
| COCCn1cnc2ccc(Sc3ncc(N4CCC5(CC4)Cc4ncsc4[C@H]5N)nc3N)c(Cl)c2c1=O [Example 164, (S)-6-((3-amino-5-(6-amino-4,6-dihydrospiro[cyclopenta[d]thiazole-5,4′-piperidin]-1′-yl)pyrazin-2-yl)thio)-5-chloro-3-(2-methoxyethyl)quinazolin-4(31-1)-one] | < 3 nM | – |
| COCCn1cnc2ccc(Sc3cnc(N4CCC5(CC4)CO[C@@H](C)[C@H]5N)nn3)c(Cl)c2c1=O [Example 183, 6-((3-((3S,4S)-4-amino-3-methyl-2-oxa-8-azaspiro[4.5]decan-8-yl)-1,2,4-triazin-6-yl)thio)-5-chloro-3-(2-methoxyethyl)quinazolin-4(3H)-one] | – | IC50 [1, 2]: > 1500 nM |
| Cn1c(N2CCN(C[C@@H](N)Cc3ccncc3)CC2)nc(N)c(Sc2cccc(Cl)c2Cl)c1=O [Example 187, (S)-6-amino-2-(4-(2-amino-3-(pyridin-4-yl)propyl)piperazin-1-yl)-5-((2,3-dichlorophenyl)thio)-3-methylpyrimidin-4(3H)-one] | > 100 nM | – |
| Cn1c(N2CCN(CCN)CC2)nc(N)c(Sc2ccnc(N)c2Cl)c1=O [Example 192] | > 100 nM | – |
| CC1(N)CCN(c2cnc(-c3cccc(Cl)c3Cl)c(N)n2)CC1 [SHP099, 6-(4-amino-4-methylpiperidin-1-yl)-3-(2,3-dichlorophenyl)pyrazin-2-amine, reference compound] | – | IC50 [1, 4]: 45 to 1500 nM |
| C[C@@H]1OCC2(CCN(c3cnc(Sc4ccnc(N)c4Cl)c(N)n3)CC2)[C@@H]1N [TNO155, (3S,4S)-8-(6-amino-5-((2-amino-3-chloropyridin-4-yl)thio)pyrazin-2-yl)-3-methyl-2-oxa-8-azaspiro[4.5]decan-4-amine, reference compound] | – | IC50 [1, 2]: < 45 nM |
